What was measured:
Format in all cases: in vivo
wheat = test: Post-emergence crop safety test on wheat crop plants
Procedure: (§1) Seeds of a variety of test species are sown in standard soil in pots (Lolium perenne (LOLPE), Setaria faberi (SETFA), Alopecurus myosuroides (ALOMY), Echinochloa crus-galli (ECHCG), Avena fatua (AVEFA)). After cultivation for one day (pre-emergence) or after 8 days cultivation (post-emergence) under controlled conditions in a glasshouse (at 24/16° C., day/night; 14 hours light; 65% humidity), the plants are sprayed with an aqueous spray solution derived from the formulation of the technical active ingredient in acetone/water (50:50) solution containing 0.5% Tween 20 (polyoxyethelyene sorbitan monolaurate, CAS RN 9005-64-5). Compounds are applied at […]. The test plants are then grown in a glasshouse under controlled conditions in a glasshouse (at 24/16° C., day/night; 14 hours light; 65% humidity) and watered twice daily. After 13 days for pre and post-emergence, the test is evaluated for the percentage damage caused to the plant. The biological activities are shown in the following table on a five point scale (5=80-100%; 4=60-79%; 3=40-59%; 2=20-39%; 1=0-19%).
Using procedures outlines above, wheat and barley crop plants and a weed species (SETFA) are treated post-emergence with compound A11 of the present invention or comparator compound C1 (Compound A-38 from WO2014/096289) at the application rates indicated. The compounds were also applied to wheat in conjunction with the safener compound cloquintocet-mexyl (CQC) at 50 g/ha.

Setaria faberi (SETFA) [1] = test: Post-emergence herbicidal glasshouse test, percentage damage; settings: for SETFA POST percentage damage (five point scale): 250 g/h, evaluated after 13 days
Procedure, shortened: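 Percentage damage was scored 13 days after treatment on a five-point scale (1=0-19% to 5=80-100%). Treatments were post-emergence sprays on 8-day-old wheat, barley and SETFA plants in a glasshouse (24/16 °C day/night, 14 h light, 65% humidity), using acetone/water 50:50 with 0.5% Tween 20 at the stated rates. Wheat additionally received cloquintocet-mexyl safener at 50 g/ha.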

barley = test: Post-emergence crop safety test on barley crop plants
Procedure: as §1
Using procedures outlines above, wheat and barley crop plants and a weed species (SETFA) are treated post-emergence with compound A11 of the present invention or comparator compound C1 (Compound A-38 from WO2014/096289) at the application rates indicated. […]

[2] = tested on: Echinochloa crus-galli (ECHCG); test: Pre-emergence herbicidal glasshouse test, percentage damage; settings: 250 g/h, evaluated after 13 days
Procedure, shortened: (§2)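 Seeds are sown in pots, grown at 24/16 °C day/night with 14 h light and 65% humidity, then sprayed at day 1 (pre-emergence) or day 8 (post-emergence). The rate is 250 g/h in acetone/water 50:50 with 0.5% Tween 20. Damage is assessed 13 days later on a 1–5 scale.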

Setaria faberi (SETFA) [3] = test: as above; settings: 250 g/h, evaluated after 13 days
Procedure, shortened: as §2

Lolium perenne (LOLPE) [4] = test: as above; settings: 250 g/h, evaluated after 13 days
Procedure, shortened: as §2

Avena fatua (AVEFA) [5] = test: as above; settings: 250 g/h, evaluated after 13 days
Procedure, shortened: as §2

[6] = tested on: Alopecurus myosuroides (ALOMY); test: as above; settings: 250 g/h, evaluated after 13 days
Procedure, shortened: as §2

[7] = tested on: Echinochloa crus-galli (ECHCG); test: Post-emergence herbicidal glasshouse test, percentage damage; settings: 250 g/h, evaluated after 13 days
Procedure, shortened: as §2

Lolium perenne (LOLPE) [8] = test: as above; settings: 250 g/h, evaluated after 13 days
Procedure, shortened: as §2

Avena fatua (AVEFA) [9] = test: as above; settings: 250 g/h, evaluated after 13 days
Procedure, shortened: as §2

[10] = tested on: Alopecurus myosuroides (ALOMY); test: as above; settings: 250 g/h, evaluated after 13 days
Procedure, shortened: as §2

SMILES	Wheat, percentage damage (wheat; rate 30) [%]	Wheat, percentage damage (wheat; rate 60) [%]	Wheat, percentage damage (wheat; rate 60 + CQC (safener cloquintocet-mexyl at 50 g/ha)) [%]	crop safety vis-à-vis prior art compound C1 (wheat; wheat and barley)	overall weed control (Setaria faberi (SETFA) [1])	SETFA, percentage damage (Setaria faberi (SETFA) [1]; rate 30) [%]	SETFA, percentage damage (Setaria faberi (SETFA) [1]; rate 60) [%]	Barley, percentage damage (barley; rate 30) [%]	Barley, percentage damage (barley; rate 60) [%]	SETFA POST percentage damage (five point scale) (Setaria faberi (SETFA) [1])	ECHCG PRE percentage damage (five point scale) [2]	SETFA PRE percentage damage (five point scale) (Setaria faberi (SETFA) [3])	LOLPE PRE percentage damage (five point scale) (Lolium perenne (LOLPE) [4])	AVEFA PRE percentage damage (five point scale) (Avena fatua (AVEFA) [5])	ALOMY PRE percentage damage (five point scale) [6]	ECHCG POST percentage damage (five point scale) [7]	LOLPE POST percentage damage (five point scale) (Lolium perenne (LOLPE) [8])	AVEFA POST percentage damage (five point scale) (Avena fatua (AVEFA) [9])	ALOMY POST percentage damage (five point scale) [10]
CC#Cc1cc(C)c(C2C(=O)CC3(CCN(C(=O)OC)CC3)CC2=O)c(C)c1 [Compound A11]	10	30	0	significantly improved crop safety	good overall weed control	100	100	10	40										
CC#Cc1cc(C)c(C2C(=O)CC3(CCN(C(=O)CCCOC)CC3)CC2=O)c(C)c1 [Compound A193]										5 (5=80-100%)	5 (5=80-100%)	5 (5=80-100%)	5 (5=80-100%)	5 (5=80-100%)	5 (5=80-100%)	5 (5=80-100%)	5 (5=80-100%)	5 (5=80-100%)	5 (5=80-100%)
CC#Cc1cc(C)c(C2C(=O)CC3(CCN(C(=O)NC(=O)c4ncccc4F)CC3)CC2=O)c(C)c1 [Compound A163]										5 (5=80-100%)	5 (5=80-100%)	5 (5=80-100%)	4 (4=60-79%)	5 (5=80-100%)	0	5 (5=80-100%)	5 (5=80-100%)	5 (5=80-100%)	5 (5=80-100%)
CC#Cc1cc(C)c(C2=C(OC(=O)OCCOC)CC3(CCN(C(=O)OCCOC)CC3)CC2=O)c(C)c1 [Compound P52]										5 (5=80-100%)	5 (5=80-100%)	5 (5=80-100%)	5 (5=80-100%)	5 (5=80-100%)	5 (5=80-100%)	5 (5=80-100%)	5 (5=80-100%)	5 (5=80-100%)	5 (5=80-100%)
CC#Cc1cc(C)c(C2C(=O)CC3(CCN(C(=O)Cc4csc(C(F)F)n4)CC3)CC2=O)c(C)c1 [Compound A194]										5 (5=80-100%)	5 (5=80-100%)	5 (5=80-100%)	5 (5=80-100%)	5 (5=80-100%)	4 (4=60-79%)	5 (5=80-100%)	5 (5=80-100%)	5 (5=80-100%)	4 (4=60-79%)
CC#Cc1cc(C)c(C2C(=O)CC3(CCN(C(=O)C4=CCCCO4)CC3)CC2=O)c(C)c1 [Compound A182]										5 (5=80-100%)	5 (5=80-100%)	5 (5=80-100%)	5 (5=80-100%)	3 (3=40-59%)	5 (5=80-100%)	5 (5=80-100%)	5 (5=80-100%)	4 (4=60-79%)	5 (5=80-100%)
